Results reported in patent US20100273748A1, “ANTIMICROBIAL THERAPY” (priority 2006, published 2010).

What was measured:
cathelicidin = experiment: qPCR of cathelicidin mRNA in cultured keratinocytes; type: cell-based, human
Experimental: (§1) Cell culture and stimuli. Human keratinocytes were grown in serum-free EpiLife® cell culture media (Cascade Biologics; Portland, Oreg.) containing 0.06 mM Ca2+ and 1× EpiLife® defined growth supplement (EDGS) at 37° C. under standard tissue culture conditions. Stock cultures were maintained for up to five passages in this media with the addition of 50 U/mL penicillin and 50 μg/mL streptomycin. HaCaT keratinocytes were cultured in DMEM (Sigma, St. Louis, Mo.) with 10% FCS. Cells at 50-70% confluence were stimulated in fresh medium after preincubation with 1,25(OH)2 vitamin D3 (1,25D3; 0.1-100 nM, 4-24 h; Sigma). Alternatively, NHEK were stimulated in the presence of 1,25D3 (0.1-100 nM). Stimuli included TLR2,6 ligands Malp-2 (0.001-0.5 μg/ml; Alexis Biochemicals, Carlsbad, Calif.), FSL-1 (1-2 μg/ml, Invivogen, San Diego, Calif.) and zymosan (50 μg/ml; Invivogen), as well as flagellin (50 ng/ml; Alexis), LPS (1 μg/ml; Sigma), lipoteichoic acid (LTA; 10 μg/ml; Sigma), 19 kDA lipopeptide (10 μg/ml, a kind gift from S. Krutzik, Division of Dermatology, UCLA), CpG DNA (10 μg/ml; Sigma), Ca2+ (1.7 mM), LPS (1 μg/ml; Sigma), TNFα (20 ng/ml; Chemicon Temecula, Calif.) and TGFβ1 (0.1-1 μg/ml; R&D Systems, Minneapolis, Minn.). A TLR2 blocking antibody (αTLR2; clone TL2.1, 5 μg/ml, eBioscience, San Diego, Calif.) was utilized to investigate the role of TLR2 signaling. Furthermore, keratinocytes were pretreated with a vitamin D receptor antagonist (VDR-antagonist ZK159222 Schering AG; 10^-7M) or the CYP inhibitor itraconazole (ITRA; 10^-7M) before stimulation with TGFβ in the presence of 25OH vitamin D3 (25D3, 10 nM, Sigma).
(§2) Real-time RT-PCR (qPCR). RNA was extracted from cells, epidermal constructs or tissue using Trizol® and 1 μg RNA was reverse transcribed using iScript® (BioRad, Hercules, Calif.). Expression of cathelicidin and GAPDH was analysed by real-time RT-PCR. Predeveloped Taqman® assay probes (ABI, Foster City, Calif.) were used for the analyses of the expression of CYP24A1 (24-hydroxylase), CYP27B1 (1α-hydroxylase), CD14, CD36, TLR1, TLR2, TLR4, TLR6 and murine CD14. All analyses were performed in triplicate from 2-5 independent experiments in an ABI Prism® 7000 Sequence Detection System. Fold induction relative to the vehicle treated control in in vitro experiments was calculated using the comparative Ct method, where ΔΔCt is ΔCt(stimulant)-ΔCt(vehicle), ΔCt is Ct(gene)-Ct(GAPDH) and Ct is the cycle at which an arbitrary detection threshold is crossed. For quantification of transcript abundance in tissue samples target gene expression was normalized to GAPDH and compared to non-treated or non-injured skin.

TLR2 = experiment: qPCR of TLR2 mRNA in cultured keratinocytes; type: cell-based, human; conditions: for TLR2 mRNA expression: 24 hours
Experimental: as §1, §2

CD14 = experiment: qPCR of CD14 mRNA in cultured keratinocytes; type: cell-based, human; conditions: for CD14 mRNA expression: 24 hours
Experimental: as §1, §2

Staphylococcus aureus = experiment: Bacterial growth inhibition (turbidity OD600) with or without carbonate; type: cell-based; conditions: for increase of LL-37 antimicrobial activity by carbonate containing compound: medium with 32 μM LL-37, pH 7.4, KHCO3 and Na2CO3 at 50 mM
S. aureus DmprF = experiment: Antimicrobial activity of keratinocyte lysates (bacterial growth, OD600); type: cell-based, Staphylococcus aureus; conditions: versus unstimulated keratinocytes
Experimental: Panel a: NHEKs were stimulated with 1,25D3 (10^−9-10^−7 M) in the presence of the HDAC inhibitor butyrate (BUT; 2 mM) for 24 hours. mRNA abundance was determined by real-time qPCR for cathelicidin and glyceraldehyde-3-phosphate dehydrogenase and normalized to vehicle-treated controls. […] Data shown are means (7SD) of the results from a single stimulation experiment performed in triplicates and are representative of at least three independent experiments (**P<0.01; ***P<0.001; two-way analysis of variance). Panel b: The HDAC inhibitor TSA (200 ng ml^−1) induces cathelicidin in the presence of 1,25D3 (10^−8M). Expression of cathelicidin is dependent on a functional VDR, as pretreatment with the VDR antagonist ZK159222 (10^−7 M) inhibits induction of cathelicidin with BUT (2 mM) in the presence of 1,25D3 (10^−8 M) after 24 hours. Expression of cathelicidin was determined by qPCR as described in Panel a. (*P<0.05; Student's t-test). Panel c: Increased transcript correlates with enhanced cathelicidin protein expression after HDAC inhibitor and 1,25D3 stimulation. NHEKs grown on chamber slides were stimulated with the vehicle, 1,25D3 (10^−8M), BUT (2 mM), or the combination for 24 hours. Cells were stained with a polyclonal anti-LL-37 antibody (followed by an FITC-coupled secondary antibody) and nuclei detected with 4,6-diamidino-2-phenylindole (Bar=30 μM). […] NHEKs were stimulated with 1,25D3 (10^−8M) in combination with the HDAC inhibitor BUT (2 mM) for 24 hours, cells harvested and cell lysates co-incubated with S. aureus DmprF, and bacterial growth monitored over time to determine antimicrobial activity. Media not containing cell lysates or containing cell lysates from unstimulated cells were used as controls.

acetylated histone H4 = experiment: Histone H4 acetylation in keratinocytes (immunofluorescence, Western blot); type: cell-based, human; conditions: NHEK stimulated with butyrate or TLR ligand
Experimental: Panel a; Immunofluorescence staining of acetylated histone H4 protein in NHEK treated with HDACi in the presence or absence of 1,25D3. […] Panel b: Western blot of acetylated histone 4 from keratinocytes treated with the HDACi butyrate or TLR agonists. […] Bar=30 μM.
The abundance of acetylated histone was directly measured to confirm the inhibitory effects of butyrate and TSA on HDACs. […] To determine if changes in histone acetylation occur upon stimulation of keratinocytes with TLR ligands NHEK were stimulated with different TLR ligands and histone acetylation was assessed.

[1] = tested on: Staphylococcus aureus mprF; experiment: Radial diffusion assay; type: cell-based; conditions: LL-37 incubated in sweat, 37° C., 6 hr
Experimental: Sweat collection and processing. Sweat was collected on paper tissues (Kimwipes, Kimberly-Clark, Ga.) from healthy volunteers after exercise. After collection, 20 ml of sweat was centrifuged at 2000 g for 15 min. at 4° C., filtered through a […] (Acrodisc syringe filter, 0.2 mm, low protein binding, Fisher scientific, Tustin, Calif.), and frozen at −80° C. For some experiments sweat was lyophilized to dryness, then suspended in 400 μl of distilled water (DW: cell culture grade, endotoxin free, GibcoBRL, Grand island, NY). For analysis of LL37 processing by sweat, 1.6 nmol of LL-37 synthetic peptide was incubated in 50 ml of sweat for 0, 1, 6, 24 hrs at 37° C. or 4° C. In some experiments proteinase inhibitors including; mixed protease inhibitor cocktail (1tab/10 ml, Roche, Indianapolis, Ind.), […] Bestatin, 10 mg/ml E-64, 10 mg/ml Aprotinin, (Sigma, St Louis, Mo.); 100 mM AEBSF, 100 mM Neutrophil elastase inhibitor (NEI) or 100 mM leukocyte elastase inhibitor (LEI) (Calbiochem, San Diego, Calif.) were added during incubation. After incubation, 2 ml was assayed by radial diffusion assay to determine antibacterial activity. For analysis by HPLC 32 nmoles LL-37 was incubated in 100u1. To control for potential contamination from paper tissues, parallel processing was done on tissues soaked in phosphate-buffered saline (PBS:137 mM NaCl, 2.7 mM KCL, 4.3 mM Na2HPO4-H2O, 1.4 mM KH2PO4, pH 7.4). No antimicrobial activity was detectable in these preparations. Protein concentrations were evaluated by BCA assay (protein assay reagent, Pierce, Rockford, Ill.) or Bradford protein assay (Bio-Rad, Hercules, Calif.) according to manufacture's instructions. Human tissue and blood collection was approved by the UCSD Human Research Protection Program.
Antimicrobial assays. For screening of antimicrobial activity of HPLC fractions, radial diffusion assay was used. Lyophilized HPLC fractions were dissolved in DW (GibcoBRL, Grand Island, N.Y.), and tested against Staphylococcus aureus mprF. Thin plates (1 mm) of 1% agarose in 0.5% tryptone containing approximately 1×10^6 cells/ml of S. aureus mprF were used. 1 mm wells were punched in the plates and […] of samples dissolved in tissue culture grade sterile water were loaded in each well.

C. albicans = experiment: Liquid assay, minimum fungicide concentration; type: cell-based, Candida albicans
Experimental: Action against the C. albicans was determined in Dixon medium (0.6% Peptone, 4% Malt Extract, 1% Glucose, 0.1% Ox Bile, 1% Tween-80) in sterile 96-well microtiter plates (Corning Inc., Corning, N.Y.) at a final volume of 50 ml. […] Microtiter plates were incubated at 37° C. for 24 h with peptides, then plated on Dixon agar to determine the MFC (minimum fungicide concentration).

[2] = tested on: wild-type S. aureus (clinical isolate); experiment: Radial diffusion assay; type: cell-based
[3] = tested on: enteroinvasive E. coli 029; experiment: Radial diffusion assay; type: cell-based
[4] = 25D3 (10 nM) or TGF (1 μg/ml) alone
[5] = 25D3 (10 nM) together with TGF (1 μg/ml)
[6] = radial diffusion and solution assay
[7] = pretreatment with antagonist 10^−7M

For `C=C1CC[C@H](O)C/C1=C/C=C1\CCC[C@]2(C)[C@@H]([C@H](C)CCCC(C)(C)O)CC[C@@H]12` [25D3, 25OH vitamin D3], the “cathelicidin mRNA expression” value (cathelicidin; 25D3 (10 nM) or TGF (1 μg/ml) alone, 24 hours) was “Neither 25D3 nor TGF alone affected expression”, the “cathelicidin mRNA expression” value (cathelicidin; 25D3 (10 nM) together with TGF (1 μg/ml), 24 hours) was “simultaneous addition induced” and the “TLR2 mRNA expression” value (TLR2; [4]) was “Neither 25D3 nor TGF alone affected expression”. The “TLR2 mRNA expression” value (TLR2; [5]) was “simultaneous addition induced”, the “CD14 mRNA expression” value (CD14; [4]) was “Neither 25D3 nor TGF alone affected expression” and the “CD14 mRNA expression” value (CD14; [5]) was “simultaneous addition induced”.

Human Beta Defensin-2 was tested, and the “enhancement of peptide activity by 50 mM NaHCO3 (EF)” value (Staphylococcus aureus; 20% TSB, 10% FBS, 1 mM NaH2PO4, 150 mM NaCl, pH 7.4) was “enhanced”.

`C=C1CC[C@H](O)C/C1=C/C=C1\CCC[C@]2(C)[C@@H]([C@H](C)CCCC(C)C)CC[C@@H]12` [Vitamin D3] was tested, and the “antimicrobial activity of stimulated keratinocytes against Staphalococcus aureus” value (S. aureus DmprF) was “enhanced antimicrobial activity” and the expression of cathelicidin (cathelicidin; normal human keratinocytes and HaCat cell line) was “induced the expression of cathelicidin”.

Poly(I:C) was tested, and the “acetylation of histone H4” value (acetylated histone H4) was “did not change histone acetylation”.

With `NCCc1ccc(S(=O)(=O)F)cc1` [AEBSF] the “blocking of the gain in LL-37 antimicrobial activity in sweat by protease inhibitor” value [1] was “most effective in blocking the increase in antimicrobial activity”.

With FSL-1 the “cathelicidin induction by TLR2,6 ligand” value (cathelicidin; in the presence of 1,25D3 (100 nM)) was “capable of inducing cathelicidin”.

With “RKSKEKIGKEFKRIVQRIKDFLRNLVPRTES [RK-31, cathelicidin peptide generated from LL-37 in sweat]” the “fungicidal activity against Candida albicans compared to LL-37” value (C. albicans) was “increased fungicidal activity”, the “action against wild-type S. aureus compared to LL-37” value [2, 6] was “greatly increased action” and the “action against E. coli compared to LL-37” value [3, 6] was “greatly increased action”.

In the case of Aprotinin, the “blocking of the gain in LL-37 antimicrobial activity in sweat by protease inhibitor” value [1] is reported as “most effective in blocking the increase in antimicrobial activity”.

With flagellin the “cathelicidin expression in response to TLR ligand” value (cathelicidin; keratinocytes pretreated with 1,25D3 0.1 nM 24 hours, then TLR ligand 24 hours) was “not to other TLR agonists” and the “acetylation of histone H4” value (acetylated histone H4) was “did not change histone acetylation”.

For `CC(C)Cn1cnc2c(N)nc3ccccc3c21` [Imiquimod], the “acetylation of histone H4” value (acetylated histone H4) was “did not change histone acetylation”.

For `O=C([O-])O.[K+]` [KHCO3], the “increase of LL-37 antimicrobial activity by carbonate containing compound” value (Staphylococcus aureus) was “also increased antimicrobial activity”.

`CC(/C=C/C(=O)NO)=C\[C@@H](C)C(=O)c1ccc(N(C)C)cc1` [Trichostatin A] was tested, and the “effect of HDAC inhibitor on 1,25D3 induced cathelicidin” value (cathelicidin; TSA 200 ng ml^−1 with 1,25D3 (10^−8M)) was “significantly increased 1,25D3 induced cathelicidin”.

“KRIVQRIKDFLRNLVPRTES [KR-20, 20 amino acid cathelicidin derivative generated from LL-37 in sweat]” was tested, and the “fungicidal activity against Candida albicans compared to LL-37” value (C. albicans) was “increased fungicidal activity”, the “Radial Diffusion Assay, minimal inhibitory concentration (MIC), S. aureus (wt)” value [2] was 4 μm and the “Radial Diffusion Assay, minimal inhibitory concentration (MIC), E. coli (O29))” value [3] was 4 μm.

`CCCc1nc2c(N)nc3ccccc3c2s1` [CL075] was tested, and the “acetylation of histone H4” value (acetylated histone H4) was “did not change histone acetylation”.

With “PR-39: porcine cathelicidin antimicrobial peptide (RRRPRPPYLPRPRPPPFFPPRLPPRIPPGFPPRFPPRFP; UniProt P80054 131-169, looked up)” the “change of minimal inhibitory concentration (MIC) by NaHCO3” value (Staphylococcus aureus; 20% TSB, 1 mM NaH2PO4, with or without 50 mM NaHCO3, pH 7.4) was “greatly reduced”.

For `O=C([O-])[O-].[Na+].[Na+]` [Na2CO3], the “increase of LL-37 antimicrobial activity by carbonate containing compound” value (Staphylococcus aureus) was “also increased antimicrobial activity”.

For `C=C1/C(=C\C=C2/CCC[C@]3(C)[C@@H]([C@H](C)/C=C/[C@@H](O)C4(C(=O)OCCCC)CC4)CC[C@@H]23)C[C@@H](O)C[C@@H]1O` [VAZ], the “effect of VDR antagonist on cathelicidin induction by HDAC inhibitor plus 1,25D3” value (cathelicidin; ZK159222 10^−7 M, BUT 2 mM, 1,25D3 10^−8 M, 24 hours) was “decreased the capacity of the HDAC inhibitor to increase cathelicidin”, the “block of cathelicidin induction by TGF plus 25D3” value (cathelicidin; [7]) was “blocked this effect” and the “block of TLR2 induction by TGF plus 25D3” value (TLR2; [7]) was “blocked this effect”. The “block of CD14 induction by TGF plus 25D3” value (CD14; [7]) was “blocked this effect”.
